Data published in PubChem BioAssay (NCI).
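In this assay, cells in 96-well plates receive the compound at five concentrations for 48 hours. Endpoints are linearly interpolated between the surrounding concentrations. At the GI50, growth is halved. TGI marks complete inhibition of growth.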

Legend:
Experiment in all cases: DTP human tumour cell line panel, 48 h
[1] = tested on: T-47D breast
[2] = tested on: OVCAR-5 ovarian
[3] = tested on: U251 CNS
[4] = tested on: UO-31 renal
[5] = tested on: MDA-MB-435
[6] = tested on: LOX IMVI melanoma
[7] = tested on: M14 melanoma
[8] = tested on: OVCAR-3 ovarian
[9] = tested on: UACC-62 melanoma
[10] = tested on: MOLT-4 leukemia
[11] = tested on: PC-3 prostate
[12] = tested on: SNB-75 CNS
[13] = tested on: UACC-257 melanoma
[14] = tested on: CAKI-1 renal
[15] = tested on: HOP-92 NSCLC
[16] = tested on: NCI-H522 lung
[17] = tested on: MCF7 breast
[18] = tested on: SK-MEL-5 melanoma
[19] = tested on: MDA-MB-468 breast
[20] = tested on: HCC-2998 colon
[21] = tested on: A549 NSCLC
[22] = tested on: MDA-MB-231 breast
[23] = tested on: 786-0 renal
[24] = tested on: SF-539 CNS
[25] = tested on: BT-549 breast
[26] = tested on: IGROV1 ovarian
[27] = tested on: HOP-62 NSCLC
[28] = tested on: SNB-19 CNS
[29] = tested on: NCI-H226 lung
[30] = tested on: HCT-15 colon

For `O=C(N/N=C/c1ccc(B(O)O)s1)c1[nH]c2ccc(Br)cc2c1-c1ccccc1`, the TGI [1] was 22700 nM, the GI50 [2] was 390 nM and the TGI [2] was 13900 nM. For the same compound, the GI50 [3] was 311 nM, the TGI [3] was 4600 nM and the GI50 [4] was 1050 nM. The TGI [4] was 14100 nM, the GI50 [5] was 250 nM and the TGI [5] was 647 nM. It also gave a GI50 [6] of 350 nM, a TGI [6] of 6220 nM and a GI50 [7] of 371 nM. It also gave a TGI [7] of 12700 nM, a GI50 [8] of 302 nM and a TGI [8] of 2960 nM. It also gave a GI50 [9] of 395 nM, a TGI [9] of 5920 nM and a GI50 [10] of 459 nM. It also gave a TGI [10] of 14400 nM, a GI50 [11] of 476 nM and a TGI [11] of 16500 nM. For the same compound, the GI50 [12] was 316 nM, the TGI [12] was 5630 nM and the GI50 [13] was 1250 nM. It also gave a TGI [13] of 18200 nM, a GI50 [14] of 444 nM and a TGI [14] of 13600 nM. The GI50 [15] was 974 nM, the TGI [15] was 6340 nM and the GI50 [16] was 208 nM. For the same compound, the TGI [16] was 549 nM, the GI50 [17] was 333 nM and the TGI [17] was 10500 nM. It also gave a GI50 [18] of 215 nM, a TGI [18] of 497 nM and a GI50 [19] of 235 nM. The TGI [19] was 572 nM, the GI50 [20] was 364 nM and the TGI [20] was 5810 nM. For the same compound, the GI50 [21] was 423 nM, the TGI [21] was 13400 nM and the GI50 [22] was 339 nM. For the same compound, the TGI [22] was 11300 nM, the GI50 [23] was 411 nM and the TGI [23] was 8280 nM. The GI50 [24] was 227 nM, the TGI [24] was 551 nM and the GI50 [25] was 348 nM. It also gave a TGI [25] of 1020 nM, a GI50 [26] of 403 nM and a TGI [26] of 13100 nM. The GI50 [27] was 557 nM, the TGI [27] was 11800 nM and the GI50 [28] was 387 nM. The TGI [28] was 13500 nM, the GI50 [29] was 511 nM and the TGI [29] was 5430 nM. The GI50 [30] was 340 nM and the TGI [30] was 8830 nM.
